The target in test [1] is T1, Peroxisome proliferator-activated receptor alpha (Homo sapiens, UniProt Q07869).
T1 sequence (Q07869 whole entry): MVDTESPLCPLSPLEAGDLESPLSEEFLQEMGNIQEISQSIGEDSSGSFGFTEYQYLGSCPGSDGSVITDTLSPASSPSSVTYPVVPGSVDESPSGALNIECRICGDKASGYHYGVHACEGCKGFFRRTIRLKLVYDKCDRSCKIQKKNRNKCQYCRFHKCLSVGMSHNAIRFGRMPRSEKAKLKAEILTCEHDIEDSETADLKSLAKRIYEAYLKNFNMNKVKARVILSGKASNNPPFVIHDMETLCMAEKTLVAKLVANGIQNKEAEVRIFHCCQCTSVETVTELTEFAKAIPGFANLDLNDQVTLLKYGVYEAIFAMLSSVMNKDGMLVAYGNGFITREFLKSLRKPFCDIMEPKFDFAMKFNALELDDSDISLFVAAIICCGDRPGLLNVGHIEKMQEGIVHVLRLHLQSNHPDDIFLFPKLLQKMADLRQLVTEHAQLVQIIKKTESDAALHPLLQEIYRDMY
Description: Effect on PPARalpha transactivation activity in HEK293 cells. Format: cell-based.

For test [2], the target named is T2, Peroxisome proliferator-activated receptor gamma (Homo sapiens, UniProt P37231).
T2 sequence (P37231 whole entry): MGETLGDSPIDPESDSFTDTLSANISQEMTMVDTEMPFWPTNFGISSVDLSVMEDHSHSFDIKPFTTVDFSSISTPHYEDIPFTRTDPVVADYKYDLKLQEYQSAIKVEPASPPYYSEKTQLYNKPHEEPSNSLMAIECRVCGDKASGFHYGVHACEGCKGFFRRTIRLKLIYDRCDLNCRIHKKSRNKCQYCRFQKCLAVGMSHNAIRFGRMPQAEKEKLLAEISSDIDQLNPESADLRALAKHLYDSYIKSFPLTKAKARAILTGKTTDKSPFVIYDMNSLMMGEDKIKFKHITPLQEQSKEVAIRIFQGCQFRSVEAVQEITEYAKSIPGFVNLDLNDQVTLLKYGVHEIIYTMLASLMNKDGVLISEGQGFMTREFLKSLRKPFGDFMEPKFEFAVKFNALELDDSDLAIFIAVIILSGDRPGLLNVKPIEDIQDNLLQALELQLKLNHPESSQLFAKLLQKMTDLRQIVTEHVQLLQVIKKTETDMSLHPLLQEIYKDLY
It counts as cell-based, HEK293.

Test [3] deals with T3, Peroxisome proliferator-activated receptor delta (Homo sapiens, UniProt Q03181).
T3 sequence (Q03181 whole entry): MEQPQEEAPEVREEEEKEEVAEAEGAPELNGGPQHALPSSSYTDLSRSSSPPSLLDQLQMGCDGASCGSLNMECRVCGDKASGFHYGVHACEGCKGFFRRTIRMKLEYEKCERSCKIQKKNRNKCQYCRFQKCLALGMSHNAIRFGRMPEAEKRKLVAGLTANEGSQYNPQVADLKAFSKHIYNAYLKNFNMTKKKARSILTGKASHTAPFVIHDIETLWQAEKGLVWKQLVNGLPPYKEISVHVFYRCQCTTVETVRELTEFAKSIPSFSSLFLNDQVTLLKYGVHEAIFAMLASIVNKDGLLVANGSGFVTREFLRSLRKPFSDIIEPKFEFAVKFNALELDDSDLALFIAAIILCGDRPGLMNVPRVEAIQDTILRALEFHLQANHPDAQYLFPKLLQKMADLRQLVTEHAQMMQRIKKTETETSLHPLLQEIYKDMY

SMILES strings stand for the structures.

As to `CCC(Cc1ccc(OCc2ccccc2)c(CNC(=O)c2ccc(C(F)(F)F)cc2)c1)C(=O)O` (stereo not given), in test [1], the concentration for a half-maximal effect (EC50) was above 10 µM.

In test [2], `COc1ccc(CC(C)C(=O)O)cc1CNC(=O)c1ccc(C(F)(F)F)cc1` (stereo not given) yielded a concentration giving a half-maximal response (EC50) above 10 µM.

Consider `CCCCOc1ccc(C[C@@H](CC)C(=O)O)cc1CNC(=O)c1ccc(C(F)(F)F)cc1F`, for which the EC50 in test [3] came to 0.0083 µM; in test [2], 7 µM.

In the case of `COc1ccc(CCC(=O)O)cc1CNC(=O)c1ccc(C(F)(F)F)cc1`, in test [2], the EC50 is above 10 µM.
